# What was measured:
# [1] = Metabolic stability in human liver microsomes; format: in vitro ADME; settings: LM Clint (intrinsic clearance); 1 μM test compound, 0.5 mg protein/mL microsome, 37° C., up to 60 min
# Method: 2.1. Test Compound and Control Working Solution Preparation: Working solution: 5 µL of compound and control stock solution (10 mM in dimethyl sulfoxide (DMSO)) were diluted with 495 μL of acetonitrile (ACN) (intermediate solution concentration: 100 μM, 99% ACN).
# 2.2.1. […] 2.2.2. Preparation Procedure: The appropriate amount of NADPH powder were weighed and diluted into a 10 mM MgCl2 solution (working solution concentration: 10 unit/mL; final concentration in reaction system: 1 unit/mL).
# 2.3.2. Preparation Procedure: The appropriate concentrations of microsome working solutions were prepared in 100 mM potassium phosphate buffer. 2.4. Stop Solution Preparation: Cold (4° C.) acetonitrile (ACN) containing 200 ng/mL tolbutamide and 200 ng/mL labetalol as internal standards (IS) were used as the stop solution.
# 2.5.1. Pre-warm empty ‘Incubation’ plates T60 and NCF60 for 10 min minutes. 2.5.2. Liver microsomes were diluted to 0.56 mg/mL in 100 mM phosphate buffer. 2.5.3. 445 uL microsome working solutions (0.56 mg/mL) were transferred into pre-warmed ‘Incubation’ plates T60 and NCF60. Then ‘Incubation’ plates T60 and NCF60 were pre-incubated for 10 min at 37° C. with constant shaking. 54 μL liver microsomes were transferred to blank plate, then 6 μL NAPDH cofactor were added to the blank plate, and then 180 μL quenching solution can be added to blank plate. 2.5.4 5 μL compound working solution (100 μM) were added into ‘incubation’ plates (T60 and NCF60) containing microsomes and mix 3 times thoroughly. 2.5.5. For the NCF60 plate, 50 uL of buffer were added and were mixed 3 times thoroughly. Start timing; plate was incubated at 37° C. for 60 min while shaking. 2.5.6. In ‘Quenching’ plate TO, 180 μL quenching solution were added and 6 μL NAPDH cofactor were added. Ensured the plate was chilled to prevent evaporation. 2.5.7. For the T60 plate, were mixed 3 times thoroughly, and immediately removed 54 μL mixture for the 0-min time point to ‘Quenching’ plate. Then 44 μL NAPDH cofactor were added to incubation plate (T60). Start timing; plate were incubated at 37° C. for 60 min while shaking.
# 2.5.8. At 5, 10, 20, 30, and 60 min, 180 μL quenching solution were added to ‘Quenching’ plates, mix once, and were serially transferred 60 μL sample from T60 plate per time point to ‘Quenching’ plates.
# 2.5.9. For NCF60: were mixed once, and 60 μL sample were transferred from the NCF60 incubation to ‘Quenching’ plate containing quenching solution at the 60-min time point.
# 2.5.10. All sampling plates were shaken for 10 min, then centrifuged at 4000 rpm for 20 minutes at 4° C. 2.5.11. 80 μL supernatant were transferred into 240 μL HPLC water, and were mixed by plate shaker for 10 min. 2.5.12. Each bioanalysis plate were sealed and shaken for 10 minutes prior to LC-MS/MS analysis.
# 3.1. The equation of first order kinetics were used to calculate T1/2 and Intrinsic clearance (CLint mic) in (μL/min/mg).
# Equation of first order kinetic.
# [2] = biological target: T1, TNIK kinase [amino acid sequence (1-367), Invitrogen] (Homo sapiens, UniProt Q9UKE5); test: TNIK kinase inhibition assay (Z-lyte FRET-peptide); format: biochemical; settings: 0.625 nM TNIK kinase, 2 μM Ser/Thr 7 peptide, 64 μM ATP, one hour at room temperature
# T1 construct: purchased Invitrogen
# T1 sequence (Q9UKE5 1-367): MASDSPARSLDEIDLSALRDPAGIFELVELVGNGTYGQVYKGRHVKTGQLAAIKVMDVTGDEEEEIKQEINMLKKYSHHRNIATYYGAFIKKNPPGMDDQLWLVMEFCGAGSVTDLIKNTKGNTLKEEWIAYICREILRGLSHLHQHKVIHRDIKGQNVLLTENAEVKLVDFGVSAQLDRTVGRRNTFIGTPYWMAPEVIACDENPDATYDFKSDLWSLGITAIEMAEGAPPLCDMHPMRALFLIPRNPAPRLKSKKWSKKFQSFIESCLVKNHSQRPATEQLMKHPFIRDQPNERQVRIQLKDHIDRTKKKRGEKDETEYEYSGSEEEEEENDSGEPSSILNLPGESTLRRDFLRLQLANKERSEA
Structure (SMILES),Human Liver Microsome (μM/min/mg) [1],IC50 [2]
"CC(C)n1cnc(-c2ccc(F)cc2)c1-c1nc(C(=O)Nc2ccc(N3CCN(C)CC3)nc2)cs1 [Compound 8, 2-(4-(4-fluorophenyl)-1-isopropyl-1H-imidazol-5-yl)-N-(6-(4-methylpiperazin-1-yl)pyridin-3-yl)thiazole-4-carboxamide]",+ (>100 μM/min/mg as +),1 to 12 nM
"[2H]C([2H])([2H])N1CCN(c2ccc(NC(=O)c3c[nH]c(-c4c(-c5ccc(F)cc5)ncn4C([2H])(C)C)n3)nc2)CC1 [Compound 125, 2-[3-(1-deuterio-1-methyl-ethyl)-5-(4-fluorophenyl)imidazol-4-yl]-N-[5-[4-(trideuteriomethyl)piperazin-1-yl]-2-pyridyl]-1H-imidazole-4-carboxamide]",++ (10-100 μM/min/mg as ++),1 to 12 nM
"CC(C)n1cnc(-c2ccc(F)cc2)c1-c1nc(C(=O)Nc2ccc(C3CCN(C)CC3)cn2)cs1 [Compound 9, 2-(4-(4-fluorophenyl)-1-isopropyl-1H-imidazol-5-yl)-N-(5-(1-methylpiperidin-4-yl)pyridin-2-yl)thiazole-4-carboxamide]",++ (10-100 μM/min/mg as ++),1 to 12 nM
"CC(C)n1cnc(-c2ccc(F)cc2)c1-c1nc(C(=O)Nc2ccc(N3CCN(C)CC3)cc2F)c[nH]1 [Compound 14, N-(2-fluoro-4-(4-methylpiperazin-1-yl)phenyl)-5′-(4-fluorophenyl)-3′-isopropyl-1H,3′H-[2,4′-biimidazole]-4-carboxamide]",++ (10-100 μM/min/mg as ++),1 to 12 nM
"CC(C)c1noc(-c2ccc(F)cc2)c1-c1nc(C(=O)Nc2ccc(C3COC3)cn2)cs1 [Compound 93, 2-(5-(4-fluorophenyl)-3-isopropylisoxazol-4-yl)-N-(5-(oxetan-3-yl)pyridin-2-yl)thiazole-4-carboxamide]",++ (10-100 μM/min/mg as ++),1 to 12 nM
"CC(C)n1cnc(-c2ccc(F)cc2)c1-c1csc(C(=O)Nc2ccc(N3CCN(C)CC3)cn2)n1 [Compound 13, 4-(4-(4-fluorophenyl)-1-isopropyl-1H-imidazol-5-yl)-N-(5-(4-methylpiperazin-1-yl)pyridin-2-yl)thiazole-2-carboxamide]",+ (>100 μM/min/mg as +),1 to 12 nM
"O=C(Nc1ccc(N2CCOCC2)cn1)c1csc(-c2c(-c3ccc(F)cc3)ncn2C2COC2)n1 [Compound 70, 2-(4-(4-fluorophenyl)-1-(oxetan-3-yl)-1H-imidazol-5-yl)-N-(5-morpholinopyridin-2-yl)thiazole-4-carboxamide]",++ (10-100 μM/min/mg as ++),1 to 12 nM
"CC(C)n1cnc(-c2ccc(F)cc2)c1-c1nc(C(=O)Nc2ccc(N3CC4CC(C3)N4C)cc2)c[nH]1 [Compound 23, 5′-(4-fluorophenyl)-3′-isopropyl-N-(4-(6-methyl-3,6-diazabicyclo[3.1.1]heptan-3-yl)phenyl)-1H,3′H-[2,4′-biimidazole]-4-carboxamide]",++ (10-100 μM/min/mg as ++),1 to 12 nM
"CC(C)n1cnc(-c2ccc(F)cc2)c1-c1nc(C(=O)Nc2ccc(C3CN(C)C3)cc2F)cs1 [Compound 58, N-(2-fluoro-4-(1-methylazetidin-3-yl)phenyl)-2-(4-(4-fluorophenyl)-1-isopropyl-1H-imidazol-5-yl)thiazole-4-carboxamide]",++ (10-100 μM/min/mg as ++),1 to 12 nM
"CC(C)n1cnc(-c2ccc(F)cc2)c1-c1nc(C(=O)Nc2ccc(C3COC3)cn2)cs1 [Compound 57, 2-(4-(4-fluorophenyl)-1-isopropyl-1H-imidazol-5-yl)-N-(5-(oxetan-3-yl)pyridin-2-yl)thiazole-4-carboxamide]",+ (>100 μM/min/mg as +),1 to 12 nM
"CC(C)n1cnc(-c2ccc(F)cc2)c1-c1nc(C(=O)Nc2ccc(N3CCN(C)CC3)cc2F)co1 [Compound 28, N-(2-fluoro-4-(4-methylpiperazin-1-yl)phenyl)-2-(4-(4-fluorophenyl)-1-isopropyl-1H-imidazol-5-yl)oxazole-4-carboxamide]",+ (>100 μM/min/mg as +),1 to 12 nM
"CC(C)c1noc(-c2ccc(F)cc2)c1-c1nc(C(=O)Nc2ccc(N3CC4CC(C3)N4C)cn2)cs1 [Compound 95, 2-(5-(4-fluorophenyl)-3-isopropylisoxazol-4-yl)-N-(5-(6-methyl-3,6-diazabicyclo[3.1.1]heptan-3-yl)pyridin-2-yl)thiazole-4-carboxamide]",++ (10-100 μM/min/mg as ++),1 to 12 nM
"CC(C)n1cnc(-c2ccc(F)cc2)c1-c1csc(C(=O)Nc2ccc(N3CCN(C)CC3)cc2F)n1 [Compound 12, N-(2-fluoro-4-(4-methylpiperazin-1-yl)phenyl)-4-(4-(4-fluorophenyl)-1-isopropyl-1H-imidazol-5-yl)thiazole-2-carboxamide]",++ (10-100 μM/min/mg as ++),1 to 12 nM
"[2H]C([2H])([2H])N1CC(c2ccc(NC(=O)c3csc(-c4c(-c5ccc(F)c(Cl)c5)ncn4C(C)C)n3)nc2)C1 [Compound 123, 2-[5-(3-chloro-4-fluoro-phenyl)-3-isopropyl-imidazol-4-yl]-N-[5-[1-(trideuteriomethyl)azetidin-3-yl]-2-pyridyl]thiazole-4-carboxamide]",++ (10-100 μM/min/mg as ++),1 to 12 nM
"CC(C)n1cnc(-c2ccc(F)cc2)c1-c1nc(C(=O)Nc2ccc3c(n2)CN(C)CC3)cs1 [Compound 43, 2-(4-(4-fluorophenyl)-1-isopropyl-1H-imidazol-5-yl)-N-(7-methyl-5,6,7,8-tetrahydro-1,7-naphthyridin-2-yl)thiazole-4-carboxamide]",+ (>100 μM/min/mg as +),1 to 12 nM
"CC(C)n1cnc(-c2ccc(F)cc2)c1-c1nc(C(=O)Nc2ccc(N3CCP(C)(=O)CC3)cn2)cs1 [Compound 85, 2-(4-(4-fluorophenyl)-1-isopropyl-1H-imidazol-5-yl)-N-(5-(4-methyl-4-oxido-1,4-azaphosphinan-1-yl)pyridin-2-yl)thiazole-4-carboxamide]",++ (10-100 μM/min/mg as ++),1 to 12 nM
"[2H]C([2H])([2H])N1CCN(c2ccc(NC(=O)c3c[nH]c(-c4c(-c5ccc(F)cc5)ncn4C(C)C)n3)c(F)c2)CC1 [Compound 126, 2-[5-(4-fluorophenyl)-3-isopropyl-imidazol-4-yl]-N-[2-fluoro-4-[4-(trideuteriomethyl)piperazin-1-yl]phenyl]-1H-imidazole-4-carboxamide]",++ (10-100 μM/min/mg as ++),1 to 12 nM
"[2H]C([2H])([2H])N1CCN(c2ccc(NC(=O)c3c[nH]c(-c4c(-c5ccc(F)cc5)ncn4C([2H])(C)C)n3)c(F)c2)CC1 [Compound 127, 2-[3-(1-deuterio-1-methyl-ethyl)-5-(4-fluorophenyl)imidazol-4-yl]-N-[2-fluoro-4-[4-(trideuteriomethyl)piperazin-1-yl]phenyl]-1H-imidazole-4-carboxamide]",++ (10-100 μM/min/mg as ++),1 to 12 nM
"CC(C)c1noc(-c2ccc(F)cc2)c1-c1nc(C(=O)Nc2ccc(C3COC3)cc2F)cs1 [Compound 31, N-(2-fluoro-4-(oxetan-3-yl)phenyl)-2-(5-(4-fluorophenyl)-3-isopropylisoxazol-4-yl)thiazole-4-carboxamide]",++ (10-100 μM/min/mg as ++),12 to 150 nM
"CC(C)n1cnc(-c2ccc(F)cc2)c1-c1nc(C(=O)Nc2ccc(N3C[C@H]4CC[C@@H](C3)N4C)cn2)cs1 [Compound 41, 2-(4-(4-fluorophenyl)-1-isopropyl-1H-imidazol-5-yl)-N-(5-((1R,5S)-8-methyl-3,8-diazabicyclo[3.2.1]octan-3-yl)pyridin-2-yl)thiazole-4-carboxamide]",++ (10-100 μM/min/mg as ++),1 to 12 nM

# Source: patent publication US20240336611A1 (Insilico Medicine IP Limited, priority 2021, published 2024)
